Source: patent US10807944B2, “HDAC inhibitor compounds and methods of treatment” (priority 2014, dated 2020)
Where two headings read alike, the source gives them in different places.

How the values were obtained:
[1] = Oral tolerability / maximal tolerated dose in mice; details: mouse
HDAC9 = HDAC9 (Homo sapiens (Human), UniProt Q9UKV0); test: HDAC9 in vitro inhibition, dose response; format: biochemical; details: Table 1; read-out: Inhibitory Potency (IC50) HDAC 9
HCT116 cells [2] = test: Histone acetylation by Western blotting; format: cell-based
MDA-MB-231 cells [3] = details: MDA-MB-231 monolayer scratch; UF010 at 1 μM
MDA-MB-231 cells [4] = test: Cancer cell viability (CellTiter-Glo); format: cell-based; details: Homo sapiens, MDA-MB-231, read-out: Cancer cell (MDA-MB-231) killing IC50
HDAC3 [5] = biological target: T1, HDAC3 (Homo sapiens (Human), UniProt O15379); test: HDAC-3 inhibition potency, luminescence readout; format: biochemical; details: Table 6, luminescence readout
in vivo = details: mouse, plasma, po, 80 mg/kg
HDAC4 = HDAC4 (Homo sapiens (Human), UniProt P56524); test: HDAC4 in vitro inhibition, dose response; format: biochemical; details: Table 1; read-out: Inhibitory Potency (IC50) HDAC 4
HCT116 and A549 cells = test: Acetylation of non-histone proteins by Western blotting; format: cell-based
CDKN1A = test: qPCR of CDKN1A encoding p21; format: cell-based; details: MDA-MB-231
HCT116 cells [6] = test: H3K18ac after 6 h pulse treatment and drug washout; format: cell-based
HDAC5 = HDAC5 (Homo sapiens (Human), UniProt Q9UQL6); test: HDAC5 in vitro inhibition, dose response; format: biochemical; details: Table 1; read-out: Inhibitory Potency (IC50) HDAC 5
HDAC6 = HDAC6 (Homo sapiens (Human), UniProt Q9UBN7); test: HDAC6 in vitro inhibition, dose response; format: biochemical
HepG2 cells [7] = tested on: HepG2 cells
HDAC8 = HDAC8 (Homo sapiens (Human), UniProt Q9BY41); test: HDAC8 in vitro inhibition, dose response; format: biochemical
HDAC1 [8] = biological target: T2, HDAC1 (Homo sapiens (Human), UniProt Q13547); test: HDAC1 in vitro inhibition, dose response; format: biochemical
HDAC1 [9] = biological target: T2, HDAC1; test: HDAC-1 inhibition potency, luminescence readout; format: biochemical; details: Table 6, luminescence readout
Text: (§1) Compounds were examined for their HDAC inhibitory activity and their effect on cancer cell viability (MDA-MB-231 cells).

HDAC2 [10] = biological target: T3, HDAC2 (Homo sapiens (Human), UniProt Q92769); test: HDAC-2 inhibition potency, luminescence readout; format: biochemical; details: Table 6, luminescence readout
Text: as §1

[11] = tested on: NCI-60 panel of cancer cell lines; test: NCI-60 panel of cancer cell lines, cell growth; format: cell-based; details: all tested cell lines
[12] = mouse, in vivo, po
MDA-MB-231 cells [13] = test: Cell cycle analysis by FACS; format: cell-based; details: MDA-MB-231, 24 h, dose-dependent
MDA-MB-468 cells = test: Viability of MDA-MB-468 cells, with or without HDAC shRNA; details: for IC50: Homo sapiens
HDAC10 = HDAC10 (Homo sapiens (Human), UniProt Q969S8); test: HDAC10 in vitro inhibition, dose response; format: biochemical; details: Table 1; read-out: Inhibitory Potency (IC50) HDAC 10
HDAC7 = HDAC7 (Homo sapiens (Human), UniProt Q8WUI4); test: HDAC7 in vitro inhibition, dose response; format: biochemical; details: Table 1; read-out: Inhibitory Potency (IC50) HDAC 7
HepG2 cells [14] = test: cells; details: Homo sapiens
HDAC3 [15] = biological target: T1, HDAC3; test: HDAC3 in vitro inhibition, dose response; format: biochemical
HDAC2 [16] = biological target: T3, HDAC2; test: HDAC2 in vitro inhibition, dose response; format: biochemical
HDAC11 = HDAC11 (Homo sapiens (Human), UniProt Q96DB2); test: HDAC11 in vitro inhibition, dose response; format: biochemical; details: Table 1; read-out: Inhibitory Potency (IC50) HDAC 11
HDAC1 [17] = biological target: T2, HDAC1; test: In vitro HDAC1 inhibition of HTS hits (HDAC I/II-Glo reagents); format: biochemical; details: HTS follow-up

T2 sequence (Q13547 whole entry): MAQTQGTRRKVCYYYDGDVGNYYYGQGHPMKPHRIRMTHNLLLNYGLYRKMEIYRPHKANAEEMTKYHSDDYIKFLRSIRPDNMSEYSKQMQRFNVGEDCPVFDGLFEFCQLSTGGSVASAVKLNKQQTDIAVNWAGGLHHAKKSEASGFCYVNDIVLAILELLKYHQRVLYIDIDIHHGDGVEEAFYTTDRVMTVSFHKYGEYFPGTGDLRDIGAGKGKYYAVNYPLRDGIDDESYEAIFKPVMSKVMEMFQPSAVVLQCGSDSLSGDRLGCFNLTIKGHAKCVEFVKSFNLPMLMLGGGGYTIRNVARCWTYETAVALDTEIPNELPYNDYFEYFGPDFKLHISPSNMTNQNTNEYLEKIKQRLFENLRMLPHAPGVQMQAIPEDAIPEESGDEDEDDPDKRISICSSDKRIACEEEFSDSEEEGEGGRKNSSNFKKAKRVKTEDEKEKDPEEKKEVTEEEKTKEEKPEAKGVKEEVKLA
T3 sequence (Q92769 whole entry): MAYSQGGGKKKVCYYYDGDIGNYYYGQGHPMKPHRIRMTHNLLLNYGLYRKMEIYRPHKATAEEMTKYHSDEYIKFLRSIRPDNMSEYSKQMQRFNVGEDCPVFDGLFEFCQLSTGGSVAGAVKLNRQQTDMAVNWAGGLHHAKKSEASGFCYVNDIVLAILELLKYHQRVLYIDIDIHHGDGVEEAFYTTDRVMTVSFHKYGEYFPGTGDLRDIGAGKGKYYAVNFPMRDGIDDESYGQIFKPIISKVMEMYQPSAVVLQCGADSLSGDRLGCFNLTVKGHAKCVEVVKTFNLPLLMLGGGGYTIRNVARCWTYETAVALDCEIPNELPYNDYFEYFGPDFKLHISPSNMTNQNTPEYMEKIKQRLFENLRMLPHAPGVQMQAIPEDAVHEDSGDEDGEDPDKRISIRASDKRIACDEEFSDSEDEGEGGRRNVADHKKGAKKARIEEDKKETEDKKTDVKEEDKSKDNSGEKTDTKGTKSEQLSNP
T1 sequence (O15379 whole entry): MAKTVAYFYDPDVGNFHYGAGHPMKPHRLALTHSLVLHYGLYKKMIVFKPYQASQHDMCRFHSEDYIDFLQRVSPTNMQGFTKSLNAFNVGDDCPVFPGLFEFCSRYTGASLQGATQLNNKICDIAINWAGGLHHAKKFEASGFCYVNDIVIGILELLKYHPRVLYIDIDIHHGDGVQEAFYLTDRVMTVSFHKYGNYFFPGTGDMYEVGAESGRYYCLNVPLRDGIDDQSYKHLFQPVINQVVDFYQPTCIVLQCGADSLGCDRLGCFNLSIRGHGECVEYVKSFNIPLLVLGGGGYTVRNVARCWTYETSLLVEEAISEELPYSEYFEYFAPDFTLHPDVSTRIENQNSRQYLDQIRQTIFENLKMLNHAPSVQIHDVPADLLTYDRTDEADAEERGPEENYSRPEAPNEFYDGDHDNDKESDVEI
T1 sequence (Q9Y618 395-489 partner): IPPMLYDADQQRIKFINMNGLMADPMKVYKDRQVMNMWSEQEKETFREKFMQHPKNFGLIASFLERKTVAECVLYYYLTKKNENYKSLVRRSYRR
Sequence of HDAC8 (Q9BY41 whole entry): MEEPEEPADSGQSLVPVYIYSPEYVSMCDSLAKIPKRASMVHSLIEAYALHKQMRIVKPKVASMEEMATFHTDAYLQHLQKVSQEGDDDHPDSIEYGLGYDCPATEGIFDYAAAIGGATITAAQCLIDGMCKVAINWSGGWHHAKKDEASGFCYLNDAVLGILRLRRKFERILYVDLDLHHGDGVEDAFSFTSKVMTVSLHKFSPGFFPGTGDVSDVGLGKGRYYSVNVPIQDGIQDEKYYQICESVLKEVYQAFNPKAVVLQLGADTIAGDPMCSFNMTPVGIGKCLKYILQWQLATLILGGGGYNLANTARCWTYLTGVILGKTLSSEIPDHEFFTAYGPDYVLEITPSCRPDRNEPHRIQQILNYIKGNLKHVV
Sequence of HDAC6 (Q9UBN7 whole entry): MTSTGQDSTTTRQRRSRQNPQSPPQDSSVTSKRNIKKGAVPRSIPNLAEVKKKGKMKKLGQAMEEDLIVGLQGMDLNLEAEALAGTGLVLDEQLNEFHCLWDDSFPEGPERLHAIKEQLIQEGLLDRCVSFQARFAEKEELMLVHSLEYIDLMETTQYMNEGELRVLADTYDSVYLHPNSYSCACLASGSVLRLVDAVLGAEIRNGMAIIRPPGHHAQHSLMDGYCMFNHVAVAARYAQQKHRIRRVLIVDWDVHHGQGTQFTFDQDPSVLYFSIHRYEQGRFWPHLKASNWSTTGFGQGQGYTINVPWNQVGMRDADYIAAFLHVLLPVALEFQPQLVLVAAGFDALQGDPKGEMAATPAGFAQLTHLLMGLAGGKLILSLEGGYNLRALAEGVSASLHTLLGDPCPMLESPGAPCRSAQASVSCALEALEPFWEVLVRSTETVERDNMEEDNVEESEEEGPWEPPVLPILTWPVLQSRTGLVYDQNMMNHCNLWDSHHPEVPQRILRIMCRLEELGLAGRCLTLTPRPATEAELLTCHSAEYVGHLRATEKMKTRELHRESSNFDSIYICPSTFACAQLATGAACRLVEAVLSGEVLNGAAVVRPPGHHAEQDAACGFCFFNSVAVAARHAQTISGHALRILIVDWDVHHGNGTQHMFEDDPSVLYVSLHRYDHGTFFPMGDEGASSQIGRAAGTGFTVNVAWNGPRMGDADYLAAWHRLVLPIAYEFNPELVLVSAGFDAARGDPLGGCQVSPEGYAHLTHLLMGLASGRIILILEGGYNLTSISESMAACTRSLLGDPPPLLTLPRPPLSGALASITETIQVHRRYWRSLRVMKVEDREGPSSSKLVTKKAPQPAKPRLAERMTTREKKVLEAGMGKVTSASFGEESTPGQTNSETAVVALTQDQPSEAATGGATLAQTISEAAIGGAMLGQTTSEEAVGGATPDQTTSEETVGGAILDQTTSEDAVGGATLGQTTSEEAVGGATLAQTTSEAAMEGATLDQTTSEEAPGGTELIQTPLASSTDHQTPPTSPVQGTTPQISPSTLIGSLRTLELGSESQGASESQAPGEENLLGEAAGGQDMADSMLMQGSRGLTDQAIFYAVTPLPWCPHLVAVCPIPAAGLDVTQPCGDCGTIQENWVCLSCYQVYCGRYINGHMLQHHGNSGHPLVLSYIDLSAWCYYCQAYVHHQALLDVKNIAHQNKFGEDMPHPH
Sequence of HDAC9 (Q9UKV0 whole entry): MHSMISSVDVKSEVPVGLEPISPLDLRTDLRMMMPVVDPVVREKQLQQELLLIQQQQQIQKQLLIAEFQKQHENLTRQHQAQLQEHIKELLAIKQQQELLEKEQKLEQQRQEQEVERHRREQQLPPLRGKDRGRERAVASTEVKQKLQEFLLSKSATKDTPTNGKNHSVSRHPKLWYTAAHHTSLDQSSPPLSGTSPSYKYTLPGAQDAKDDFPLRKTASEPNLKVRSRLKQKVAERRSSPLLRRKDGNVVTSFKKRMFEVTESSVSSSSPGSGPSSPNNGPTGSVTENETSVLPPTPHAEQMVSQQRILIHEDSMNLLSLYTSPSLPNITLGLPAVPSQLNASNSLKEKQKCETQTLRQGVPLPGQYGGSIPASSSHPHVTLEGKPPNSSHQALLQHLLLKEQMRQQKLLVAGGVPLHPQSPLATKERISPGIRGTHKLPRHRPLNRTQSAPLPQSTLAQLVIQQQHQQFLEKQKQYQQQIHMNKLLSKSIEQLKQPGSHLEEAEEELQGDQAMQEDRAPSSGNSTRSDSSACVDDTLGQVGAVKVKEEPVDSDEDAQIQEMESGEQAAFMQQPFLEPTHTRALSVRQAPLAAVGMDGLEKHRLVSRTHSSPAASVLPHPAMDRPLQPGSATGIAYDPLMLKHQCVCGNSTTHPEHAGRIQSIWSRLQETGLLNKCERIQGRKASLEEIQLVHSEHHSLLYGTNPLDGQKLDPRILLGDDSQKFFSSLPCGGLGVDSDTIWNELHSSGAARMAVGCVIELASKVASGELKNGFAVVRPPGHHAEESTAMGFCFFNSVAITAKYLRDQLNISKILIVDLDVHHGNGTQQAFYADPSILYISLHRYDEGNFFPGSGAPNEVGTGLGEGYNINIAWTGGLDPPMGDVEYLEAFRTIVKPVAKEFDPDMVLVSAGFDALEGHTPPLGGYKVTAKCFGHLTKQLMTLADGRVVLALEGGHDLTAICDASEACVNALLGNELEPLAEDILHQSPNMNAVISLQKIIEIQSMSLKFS
Sequence of HDAC7 (Q8WUI4 whole entry): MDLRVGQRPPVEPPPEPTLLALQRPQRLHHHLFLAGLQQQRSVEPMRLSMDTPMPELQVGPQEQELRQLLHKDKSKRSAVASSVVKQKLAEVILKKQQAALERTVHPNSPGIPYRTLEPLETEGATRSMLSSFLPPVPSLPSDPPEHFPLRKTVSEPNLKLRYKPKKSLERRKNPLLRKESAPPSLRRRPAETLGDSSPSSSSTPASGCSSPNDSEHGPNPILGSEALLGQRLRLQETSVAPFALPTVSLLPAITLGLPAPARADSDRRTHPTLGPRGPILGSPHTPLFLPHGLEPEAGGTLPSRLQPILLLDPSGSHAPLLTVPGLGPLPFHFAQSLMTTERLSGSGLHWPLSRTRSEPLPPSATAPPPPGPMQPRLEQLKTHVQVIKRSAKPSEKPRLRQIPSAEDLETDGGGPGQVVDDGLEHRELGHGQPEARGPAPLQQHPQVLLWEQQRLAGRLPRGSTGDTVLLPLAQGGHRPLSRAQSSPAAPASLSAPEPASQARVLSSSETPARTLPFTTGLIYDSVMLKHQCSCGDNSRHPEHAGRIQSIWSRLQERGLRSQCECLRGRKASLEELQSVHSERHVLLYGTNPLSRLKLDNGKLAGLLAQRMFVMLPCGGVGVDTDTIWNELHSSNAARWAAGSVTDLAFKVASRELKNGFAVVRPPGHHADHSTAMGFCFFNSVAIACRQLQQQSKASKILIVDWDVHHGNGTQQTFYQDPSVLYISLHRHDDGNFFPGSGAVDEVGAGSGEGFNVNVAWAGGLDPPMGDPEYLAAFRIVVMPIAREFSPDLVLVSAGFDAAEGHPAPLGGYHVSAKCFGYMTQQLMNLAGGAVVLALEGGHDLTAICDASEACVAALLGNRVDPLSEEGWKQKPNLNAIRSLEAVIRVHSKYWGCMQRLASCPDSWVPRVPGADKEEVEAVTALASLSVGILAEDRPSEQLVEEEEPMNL

CCCCNNC(=O)c1ccc(Br)cc1 [UF010, 4-bromo-N′-butylbenzohydrazide]
MTD ([1]; in vivo, po, 80 mg/kg): > 80 mg/kg | MTD ([1]; oral once daily): >80 mg/kg | IC50 (HDAC9): > 100 µM | inhibition of cellular HDACs (H4K5ac, H3K18ac) (HCT116 cells [2]; HCT116, 0.5 μM, 24 h (FIG. 1B)): potent inhibition of cellular HDACs | accumulation of acetylated histones (HCT116 cells [2]; HCT116, 1 h exposure, TSA 0.2 μM, others 2 μM (FIG. 1A)): consistently induced the accumulation of acetylated histones at all sites examined | cell migration to the denuded areas (MDA-MB-231 cells [3]): markedly slowed migration | IC50 (MDA-MB-231 cells [4]): 31 µM | IC50 (HDAC3 [5]): 0.19 µM | AUC (in vivo): 6.07 µM·h | Cmax (in vivo): 5.95 µM | Tmax (in vivo): 15 min | half-life (in vivo): 74.4 min | IC50 (HDAC4): > 100 µM | α-tubulin acetylation (HCT116 and A549 cells; HCT116 and A549, 1 h, TSA 0.2 μM, UF010 2 μM): little to no effect | accumulation of acetylated p53 (HCT116 and A549 cells; HCT116 and A549, after exposure to etoposide): induced accumulation of acetylated p53 | p53 stabilization (HCT116 and A549 cells; with or without etoposide treatment): notably stabilized p53 | CDKN1A (p21) expression by quantitative real-time PCR (CDKN1A): activation of CDKN1A | time at which histone acetylation (H3K18ac) was induced (HCT116 cells [6]; HCT116, 6 h pulse exposure): ≤ 6 h | time up to which induced acetylation was maintained (HCT116 cells [6]; HCT116, 6 h pulse then drug washout, time after drug addition): up to 96 h | mode of HDAC inhibition (on/off) (HCT116 cells [6]; HCT116, washout experiment): fast-on but slow-off | IC50 (HDAC5): > 100 µM | IC50 (HDAC6; Table 1, read-out: Inhibitory Potency (IC50) HDAC 6): 9.1 µM | IC50 (HDAC6; Table 2, read-out: HDAC 6 IC50): 9.1 µM | reduction of cytotoxic potency by HDAC2 shRNA expression (HepG2 cells [7]): about 2 fold | IC50 (HDAC8; Table 1, read-out: Inhibitory Potency (IC50) HDAC 8): 1.5 µM | IC50 (HDAC8; Table 2, read-out: HDAC 8 IC50): 1.5 µM | IC50 (HDAC1 [8]; Table 1, read-out: Inhibitory Potency (IC50) HDAC 1): 0.5 µM | IC50 (HDAC1 [8]; Table 2, read-out: HDAC 1 IC50): 0.5 µM | IC50 (HDAC1 [9]): 0.46 µM | IC50 (HDAC2 [10]): 1.33 µM | inhibition of proliferation, NCI-60 panel [11]: inhibited proliferation of all tested cell lines | abnormal physical or mental behaviors [12]: No signs | cell cycle effect (MDA-MB-231 cells [13]): mainly blocked G1/S transition | IC50 (MDA-MB-468 cells; MDA-MB-468, read-out: IC50 Control): 16.1 µM | IC50 (MDA-MB-468 cells; MDA-MB-468, read-out: IC50 HDAC2 shRNA): 32.8 µM | reduction of cytotoxic potency by HDAC2 shRNA expression (MDA-MB-468 cells; MDA-MB-468): about 2 fold | IC50 (HDAC10): 15.3 µM | IC50 (HDAC7): > 100 µM | IC50 (HepG2 cells [14]; HepG2, read-out: IC50 Control): 4.6 µM | IC50 (HepG2 cells [14]; HepG2, read-out: IC50 HDAC1 shRNA): 5.9 µM | IC50 (HepG2 cells [14]; HepG2, read-out: IC50 HDAC2 shRNA): 10.9 µM | IC50 (HepG2 cells [14]; HepG2, read-out: IC50 HDAC3 shRNA): 1.3 µM | IC50 (HDAC3 [15]; Table 1, read-out: Inhibitory Potency (IC50) HDAC 3): 0.06 µM | IC50 (HDAC3 [15]; Table 2, read-out: HDAC 3 IC50): 0.06 µM | IC50 (HDAC2 [16]; Table 1, read-out: Inhibitory Potency (IC50) HDAC 2): 0.1 µM | IC50 (HDAC2 [16]; Table 2, read-out: HDAC 2 IC50): 0.1 µM | IC50 (HDAC11): 44.5 µM | potency of HDAC1 inhibition in vitro (HDAC1 [17]): < 10 µM
